How the values were obtained:
PEX19 CTD M179R = test: Fluorescence polarization, ALDP peptide binding to PEX19 CTD M179R; parameters: species or system human; settings: with or without farnesylation, FITC-labelled ALDP peptide 20 nM, triplicate (n = 3)
Protocol: (§1) ALDP peptide (62-AAKAGMNRVFLQRLL-76) fused N-terminally with fluorescein isothiocyanate (FITC), was purchased from Peptide Specialty Laboratories GmbH. The lyophilized powder was dissolved in 1 ml water resulting in a 5 mM stock solution. Overnight dialysis against buffer containing 50 mM Tris pH 8.0, 50 mM NaCl, removed trifluoroacetate counterions. For the determination of each binding curve a 12 point titration was performed with constant concentration of 20 nM labelled peptide with increasing concentrations of PEX19 CTD variants. Starting concentration of PEX19 CTD was 1 mM with 12 serial dilutions reaching 0.5 μM. Reaction mixtures were then transferred into 96-well Optiplate and measured as triplicates in PerkinElmer EnVision plate reader. […]
(§2) Supplementary Figure 6: ALDP af finity measurement for PEX19 CTD proteins using a fluorescence polarization assay . Polarization plots as a function of protein concentration for the direct titration of PEX19 non-farnesylated (black) and farnesylated (red) forms (wild type and residue spedific mutants) into fluorescein-labeled ALDP peptide. […]
(§3) (also on this page, place not known: assay. affinity Fluorescence polarization (mP) wt wtfarn Fluorescence polarization (mP) M179Rfarn 0.00 1.00 Fluorescence polarization (mP) M255Rfarn 0.00 1.00 Fluorescence polarization (mP) I195Kfarn Kd Kd /uni03BCM)

PEX19 CTD I195K = test: Fluorescence polarization, ALDP peptide binding to PEX19 CTD I195K; parameters: species or system human; settings: with or without farnesylation, FITC-labelled ALDP peptide 20 nM, triplicate (n = 3)
Protocol: as §1, §2, §3

[1] = NMR 13C secondary chemical shifts (peptide conformation); format: physicochemical; settings: C-terminally extended version of the ALDP peptide with additional tryptophan (residue 68 to 82)
Text: Phe71 aromatic ring protons
Residue number Leucine residue
Supplementary Figure 8: Intermolecular NOEs between PEX19 CTD and the ALDP peptide, and secondary structure of the latter. (a) 1H,1H plane of a 3D ω1-filtered, ω2-edited 13C-NOESY-HSQC experiment of farnesylated PEX19 CTD free (black) and bound to the ALDP peptide (red). Methyl and methylene protons of the unlabeled farnesyl group of the PEX19 CTD show NOEs with protons of the isotope-labeled farnesylated PEX19 CTD (black circles). In the presence of also unlabeled ALDP peptide additional intermolecular methyl-methyl and aliphatic-aromatic NOEs are observed (red circles and below). (b) NMR 13C secondary chemical shifts of a C-terminally extended […]
tion. (c) Due to signal overlap, 5 out of 7 spin systems for leucine residues were assigned. Nevertheless, also the leucines residues adopt a helical conformation.
(also on this page, place not known: (Leu75)(Leu76) (Leu81)(Leu82) 5 LeuC Cα- Cβ [p.p.m.] Cα- Cβ [p.p.m.] c ω2 ω1 1H (p.p.m.) ω1 1H (p.p.m.) QDPro273/Pro274 { - - { 5)

[2] = target: T1, farnesylated wild type PEX19 CTD (Homo sapiens, UniProt P40855); test: Fluorescence polarization, ALDP peptide binding to farnesylated wild type PEX19 CTD
T1 construct: we studied the human PEX19 CTD (residues 161–299) that includes the native C-terminus; hexahistidine (TEV-cleavable) (cleaved yes); made in house; host or cells: Escherichia coli BL21 (DE3); farnesylated in vitro with recombinant S. cerevisiae farnesyl transferase
T1 sequence (P40855 161-299): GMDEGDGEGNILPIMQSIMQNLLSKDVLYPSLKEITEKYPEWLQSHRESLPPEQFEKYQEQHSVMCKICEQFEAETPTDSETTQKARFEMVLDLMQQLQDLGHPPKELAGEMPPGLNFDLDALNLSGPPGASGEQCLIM
Protocol: as §1, §2
standard deviations for triplicate measurements (n = 3).
as §3

PEX19 CTD M255R = test: Fluorescence polarization, ALDP peptide binding to PEX19 CTD M255R; parameters: species or system human; settings: with or without farnesylation, FITC-labelled ALDP peptide 20 nM, triplicate (n = 3)
Protocol: as §1, §2, §3

farnesylated PEX19 CTD = target: T2, farnesylated PEX19 CTD (Homo sapiens, UniProt P40855); test: NMR titration of farnesylated PEX19 CTD with PMP peptides; format: binding; settings: 1H,15N HSQC; 298 K; ALDP at 5 and 10 molar ratio with 100 μM PEX19 CTD; PEX13 at 1:1.5 and 1:0.5 with 50 μM
T2 construct: we studied the human PEX19 CTD (residues 161–299) that includes the native C-terminus; hexahistidine (TEV-cleavable) (cleaved yes); made in house; host or cells: Escherichia coli BL21 (DE3); farnesylated in vitro with recombinant S. cerevisiae farnesyl transferase
T2 sequence (P40855 161-299): T1 sequence (P40855 161-299)

[3] = target: T3, non-farnesylated PEX19 CTD (Homo sapiens, UniProt P40855); test: NMR titration of non-farnesylated PEX19 CTD with PMP peptides; format: binding; settings: 100 μM PEX19 CTD; peptide molar ratio up to 10:1; 1H,15N HSQC; 298 K
T3 construct: we studied the human PEX19 CTD (residues 161–299) that includes the native C-terminus; hexahistidine (TEV-cleavable) (cleaved yes); made in house; host or cells: Escherichia coli BL21 (DE3)
T3 sequence (P40855 161-299): T1 sequence (P40855 161-299)
Protocol: Figure 4 NMR analysis of PMP binding to non-farnesylated and farnesylated PEX19 CTD. (a) Comparison of ^1H,^15N HSQC spectra of 100 μM non-farnesylated CTD free (black) and in the presence of 10-fold excess of the ALDP-derived peptide (cyan). (b) Comparison of ^1H,^15N HSQC spectra of 100 μM farnesylated PEX19 CTD free (black) and in the presence of 5 (green) and 10 (red) molar ratio of the ALDP peptide. The grey dashed line indicates the position of additional baseline correction applied to remove noise from DMF signals in the peptide stock solution. (c) Chemical shift perturbation of Met/Ile methyl groups seen in ^1H,^13C HSQC experiments upon increasing concentration of ALDP peptide. […] (d) Quantification of chemical shift perturbation (CSP) of amide and methyl groups with respect to the PEX19 amino acid sequence. […] Grey colour refers to residues, which could not be analysed.
NMR spectra were acquired at 298 K on a Bruker Avance III 600-MHz spectrometer with a TCI cryo-probe head, an Avance III 750-MHz spectrometer with a TXI probe head, or an Avance 900 instrument with a TXI cryo-probe head. Spectra were processed using NMRPipe[31] and analysed with Sparky[32]. […] Backbone and side chain assignments were obtained from HNCA, HNCACB, CBCA(CO)NH, H(C)CH-TOCSY and (H)CCH-TOCSY spectra. ^13C- and ^15N- edited NOESY spectra with a mixing time of 70 ms were recorded to derive distance restraints. […]

binding to PEX19 CTD M179R (PEX19 CTD M179R): impaired binding | binding to PEX19 CTD I195K (PEX19 CTD I195K): impaired binding | helical conformation of free peptide [1]: preformed helical conformation | affinity (in words) ([2]; farnesylated PEX19 CTD): micromolar affinity | increase in affinity upon farnesylation of wild type PEX19 CTD ([2]; ratio farnesylated vs non-farnesylated wild type PEX19 CTD): seven | binding to PEX19 CTD M255R (PEX19 CTD M255R): impaired binding | NMR chemical shift perturbations / line broadening of farnesylated PEX19 CTD (farnesylated PEX19 CTD): distinct chemical shift perturbations | NMR spectral changes of non-farnesylated PEX19 CTD [3]: no significant spectral changes
Sequence: AAKAGMNRVFLQRLL [ALDP peptide, peptide, residues 62–76 of human ALDP]

— publication PMC5353646, “Allosteric modulation of peroxisomal membrane protein recognition by farnesylation of the peroxisomal import receptor PEX19” (Nature Communications, 2017)
